# According to ChEMBL document CHEMBL3593199, “Guaianolides and a seco-Eudesmane from the Resinous Exudates of Cushion Bush (Leucophyta brownii) and Evaluation of Their Cytostatic and Anti-inflammatory Activity” (J Nat Prod, 2015):
# Assays:
# RAW264.7 [1] = assay: Anti-inflammatory activity in mouse RAW264.7 cells assessed as inhibition of LPS-induced prostaglandin E2 production incubated for 48 hrs by ELISA method; format: functional, cell-based; settings: RAW264.7, 48 h
# RAW264.7 [2] = assay: Anti-inflammatory activity in mouse RAW264.7 cells assessed as inhibition of LPS-induced thromboxane B2 production incubated for 48 hrs by ELISA method; format: functional, cell-based; settings: RAW264.7, 48 h
# HT-29 = assay: Cytostatic activity against human HT-29 cells incubated for 72 hrs by alamar blue reagent based resazurin metabolism assay; format: functional, cell-based; settings: HT-29, 72 h
# MCF7 = assay: Cytostatic activity against human MCF7 cells incubated for 6 days by alamar blue reagent based resazurin metabolism assay; format: functional, cell-based; settings: MCF7, 144 h
# RAW264.7 [3] = assay: Anti-inflammatory activity in mouse RAW264.7 cells assessed as inhibition of LPS-induced prostaglandin E2 production at 10 uM incubated for 48 hrs by ELISA method; format: functional; settings: RAW264.7, 48 h
# RAW264.7 [4] = assay: Anti-inflammatory activity in mouse RAW264.7 cells assessed as inhibition of LPS-induced thromboxane B2 production at 10 uM incubated for 48 hrs by ELISA method; format: functional; settings: RAW264.7, 48 h
IC50 (RAW264.7 [1]),IC50 (RAW264.7 [2]),IC50 (HT-29),IC50 (MCF7),Compound,inhibition at 10 µM (RAW264.7 [3]),inhibition at 10 µM (RAW264.7 [4])
21.2 µM,37.5 µM,,,C=C1C(=O)O[C@@H]2C[C@](C)(O)C3=CC[C@@](C)(O)[C@@H]3C[C@H]12,,
6.5 µM,17.7 µM,28.2 µM,24.2 µM,C=C1C(=O)O[C@@H]2C[C@H](C)C3=CC[C@@](C)(O)[C@@H]3C[C@H]12,,
3 µM,11.7 µM,18.6 µM,12.1 µM,C=C1C(=O)O[C@@H]2C[C@H](C)[C@]34O[C@H]3C[C@@](C)(O)[C@@H]4C[C@H]12,,
0.7 µM,6.5 µM,14.1 µM,6.9 µM,C=C1C(=O)O[C@@H]2C[C@H](C)[C@]34O[C@H]3C[C@@](C)(OC(C)=O)[C@@H]4C[C@H]12,,
10.5 µM,34.6 µM,29.3 µM,27.2 µM,C=C1C(=O)O[C@@H]2C[C@H](C)[C@]3(O)[C@@H](C[C@H]12)[C@](C)(OC(C)=O)C[C@@H]3O,,
16.3 µM,38.6 µM,> 65 µM,> 65 µM,C=C1C(=O)O[C@@H]2C[C@H](C)[C@]34O[C@](C)(C[C@@H]3OC(C)=O)[C@@H]4C[C@H]12,,
3.2 µM,12.9 µM,18.1 µM,13.7 µM,C=C1C(=O)O[C@@H]2CC(C)=C3CC[C@@](C)(O)[C@@H]3C[C@H]12,,
3.5 µM,2.6 µM,4.8 µM,8 µM,C=C1C(=O)O[C@@H]2CC(C)=C3CC[C@@](C)(OC(C)=O)[C@@H]3C[C@H]12,,
> 79 µM,> 79 µM,> 79 µM,> 79 µM,C=C(CO)[C@@H]1CCC(C)=C([C@H](C)CCC(=O)O)C1,,
,,,,C[C@]12CCC(=O)C=C1CC[C@@H]1[C@@H]2[C@@H](O)C[C@@]2(C)[C@H]1CC[C@]2(O)C(=O)CO [HYDROCORTISONE],21%,42%
7.3 µM,15.7 µM,56.5 µM,26.6 µM,C=C1C(=O)O[C@@H]2C[C@H](C)C(CCC(C)=O)=CC[C@H]12 [TOMENTOSIN],,
